The subject of data set [1] is 4T1 murine mammary carcinoma cells. Briefly: AlDeLuc activation in 4T1 cells, lysate bioluminescence. In kind it is cell-based. As to conditions: 4T1 cell lysates; 100 μM, 60 minutes. The method, then: Validation of ALDH-Mediated Activation of AlDeLuc in Murine Breast Cancer Cells. 4T1 cells were cultured in T75 culture flasks. After two days, cells had become ˜90% confluent. An aliquot of RPMI 1640 media (1 mL) was removed from each flask and replaced with either DEAB ([…], 0.5% DMSO) or vehicle (0.5% DMSO). After incubation for one hour, the solutions were aspirated, washed with PBS, and resuspended in fresh RPMI 1640 media (9 mL). Each flask was then incubated with the AlDeLuc (100 μM) and DEAB (500 μM) or AlDeLuc (100 μM) and vehicle (DMSO), each with a final concentration of 1% DMSO. After 60 minutes, this solution was aspirated, washed with fresh PBS, and detached from the culture flasks. The cells were then transferred to a 15 mL centrifuge tube and pelleted at 1000 rpm for 5 minutes at room temp. The cells were resuspended in PBS along with 10% protease inhibitor solution (1 protease inhibitor mini tablet per 10 mL of PBS, Pierce, Thermo Fisher Scientific) and sonicated on ice for 2.5 minutes (pulse 01, 01, 40%). The cell debris was removed via centrifugation and the supernatant was plated ([…]) into a 96-well plate (n=4 for each condition). […] ROIs were drawn around each well and the signal intensity was quantified using the Living Image Analysis software.

Data set [2] concerns the target T1, ALDH1A1 (Homo sapiens, UniProt P00352).
T1 construct: inferred from Ni-NTA purification; made in house; host or cells: E. coli BL21(DE3)
T1 sequence (P00352 1-501): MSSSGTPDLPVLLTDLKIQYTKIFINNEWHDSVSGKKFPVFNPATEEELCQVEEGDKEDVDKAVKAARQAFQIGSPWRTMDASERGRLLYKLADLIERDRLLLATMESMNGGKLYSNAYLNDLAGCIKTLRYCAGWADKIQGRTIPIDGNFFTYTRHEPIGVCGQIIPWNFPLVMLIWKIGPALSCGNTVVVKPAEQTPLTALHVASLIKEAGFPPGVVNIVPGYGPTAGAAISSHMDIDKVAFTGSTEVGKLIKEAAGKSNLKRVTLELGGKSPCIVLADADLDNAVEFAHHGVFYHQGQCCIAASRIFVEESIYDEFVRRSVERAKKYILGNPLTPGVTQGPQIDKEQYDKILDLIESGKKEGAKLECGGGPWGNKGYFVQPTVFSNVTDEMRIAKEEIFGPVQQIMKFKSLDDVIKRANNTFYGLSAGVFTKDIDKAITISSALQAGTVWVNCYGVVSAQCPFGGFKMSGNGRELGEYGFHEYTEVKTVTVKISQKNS
Briefly: Logic-gate activation of AlDeLuc by acid, ALDH1A1 and luciferase; dose dependence. The format is biochemical. The method, then: Dose-dependent Enhancement of AlDeLuc. The response of ALDH1A1 (0.4 μM) against different concentrations of AlDeLuc was measured in a black 96-well plate and was monitored using the IVIS imaging system. Various stocks of AlDeLuc were generated so that 20 μL of the probe solution gave the desired concentration. Stocks were prepared by the following: AlDeLuc was first dissolved in DMSO followed by a 60 minute incubation in equal volume 1 M HCl. Subsequently, the reaction was neutralized with 1 M NaOH and diluted with PBS. To a black 96-well plate, TEA buffer (pH 7.4), NAD^+ (2.5 mM), and either […], 5 μM, 10 μM, or 50 μM of AlDeLuc was added. After 60 minutes, each well was treated with ATP-MgSO4 (45 μL, prepared by mixing 17.78 mM ATP-Mg and 35.56 mM MgSO4 in a 1:1 ratio in PBS buffer) and luciferase (5 μL, 1 mg/mL in PBS containing 10% glycerol) to initiate bioluminescence production. Light was collected immediately after mixing, and the signal enhancement was determined relative to control wells not treated with enzymes. The total volume of each well was 200 μL (TEA (pH 7.4) with 0.2% DMSO). All data reported as the mean±standard deviation (n=4).
Dose-dependent Activation of AlDeLuc by ALDH1A1. The response of AlDeLuc (5 μM) against different concentrations of ALDH1A1 was measured in a black 96-well plate and was monitored using the IVIS imaging system. To a black 96-well plate, PBS (pH 7.4), NAD^+, and either 0.05 μM, 0.1 μM, 0.4 μM, 2 μM, or 4 μM of ALDH1A1, was added AlDeLuc. Immediately after, each well was treated with ATP-MgSO4 (45 μL, prepared by mixing 17.78 mM ATP-Mg and 35.56 mM MgSO4 in a 1:1 ratio in PBS buffer) and luciferase (5 μL, 1 mg/mL in PBS containing 10% glycerol) to initiate bioluminescence production. Light was collected immediately after mixing, and the signal enhancement was determined relative to control wells not treated with enzymes. The total volume of each well was 200 μL (PBS (pH 7.4) with 0.2% DMSO). All data reported as the mean standard deviation (n=3).

Data set [3] in a line: Evaluation of acetal response to 1 M HCl. The format is physicochemical. Conditions: 100 μM; 1 M HCl for one hour; ALDH1A1 0.4 μM; compared among 9, 10, 11. The method, then: Evaluation of Acetal Response to 1 M HCl. To identify the most robust turn-on to be utilized for this study, compounds 9, 10, and 11 were tested for their ability to be deprotected under acidic conditions. Each acetal was dissolved in DMSO and subjected to equal-volume 1 M HCl and incubated at room temperature for 60 minutes. After this time, each solution was neutralized with 1 M NaOH and diluted to a concentration of 1 mM with PBS. In a black 96-well plate, PBS, NAD^+ (2.5 mM), ALDH1A1 (0.4 μM), and either compound 9, 10 or 11 (100 μM) were added. After 5 minutes, each well was treated with ATP-MgSO4 (45 μL, prepared by mixing 17.78 mM ATP-Mg and 35.56 mM MgSO4 in a 1:1 ratio in PBS buffer) and luciferase (5 μL, 1 mg/mL in PBS containing 10% glycerol) to initiate bioluminescence production. Light was collected immediately after mixing, and the signal enhancement was determined relative to control wells containing no probe or enzymes. The total volume of each well was 200 μL (PBS (pH 7.4) with 0.5% DMSO). All data reported as the mean±standard deviation (n=4).

For data set [4], the system named is BALB/c mice. Briefly: Evaluation of systemic toxicity of AlDeLuc, H&E staining of organs. The format is in vivo. Conditions: 0.55 mg/kg systemic (retro-orbital); four hours. The method, then:
Evaluation of Systemic Toxicity of AlDeLuc in BALB c mice. BALB/c mice were anesthetized and administered AlDeLuc or vehicle via retro-orbital injection (0.55 mg/kg, 1:19 v/v DMSO:PBS). After four hours, mice were euthanized, and their organs were harvested, fixed in formalin, and submitted to Veterinary Medicine for Hematoxylin and eosin staining.

Regarding `CCN(CC)c1ccc2nc(C3=N[C@@H](C(OC)OC)CS3)sc2c1` [AlDeLuc, (S)-2-(4-(dimethoxymethyl)-4,5-dihydrothiazol-2-yl)-N,N-diethylbenzo[d]thiazol-6-amine], in data set [1], the “increase in bioluminescence compared to blank controls” value came to 42 fold. The “signal intensity versus amount of ALDH1A1” value in data set [2] (AlDeLuc 5 μM, ALDH1A1 0 to 4 μM) is “highest ALDH1A1 concentration showed the most intense signal”. Moreover, in data set [2] (AlDeLuc 2 to 50 μM, ALDH1A1 0.4 μM), the “signal intensity versus AlDeLuc concentration” value is listed as “concentration-dependent increase”. In addition, the “bioluminescent signal when acidic conditions and ALDH1A1 applied separately, compared to both” value in data set [2] (luciferase 0.02 mg/mL) is on record as “significantly attenuated”. Also, the “acid resistance of acetal (bioluminescence emission after HCl, neutralization, ALDH1A1 and luciferase)” value in data set [3] was “most acid-resistant”. Besides, the “H&E stains of spleen, kidneys, lungs, heart, liver compared to vehicle animals” value in data set [4] was “indistinguishable”.

(Values after patent publication US20250282770A1, “BIOLUMINESCENT PROBES TO TRACK STEM CELLS IN VIVO” (THE BOARD OF TRUSTEES OF THE UNIVERSITY OF ILLINOIS, priority 2024, published 2025).)
